Measured values reported in the CheMixHub viscosity set.

Assay: xn = mol fraction of the nth substance listed

CCCCCBr + Cc1ccc(C)cc1
308.15 K, 101 kPa
Details | viscosity [mPa·s]
x2 = 0.1026 | 0.6316
x2 = 0.1991 | 0.6138
x2 = 0.304 | 0.5958
x2 = 0.4033 | 0.5803
x2 = 0.503 | 0.5655
x2 = 0.6052 | 0.5526
x2 = 0.7021 | 0.5436
x2 = 0.8 | 0.5318
x2 = 0.9034 | 0.5238

CC(Cl)(Cl)Cl + Cc1ccccc1
303.15 K, 101 kPa
Details | viscosity [mPa·s]
x1 = 0.1635 | 0.5716
x1 = 0.2871 | 0.6046
x1 = 0.3684 | 0.6248
x1 = 0.4152 | 0.6363
x1 = 0.4825 | 0.6505
x1 = 0.5694 | 0.6666
x1 = 0.6729 | 0.6834
x1 = 0.763 | 0.6958
x1 = 0.8412 | 0.7049
x1 = 0.9286 | 0.7156

CCCCCBr + ClC(Cl)(Cl)Cl
viscosity [mPa·s], 101 kPa
Details | 293.15 K | 303.15 K | 313.15 K | 323.15 K
x1 = 0.13 | 0.925 | 0.81 | 0.712 | 0.633
x1 = 0.273 | 0.887 | 0.78 | 0.692 | 0.62
x1 = 0.429 | 0.863 | 0.76 | 0.675 | 0.602
x1 = 0.601 | 0.841 | 0.742 | 0.66 | 0.592

O=[N+]([O-])[O-].O=[N+]([O-])[O-].[Ba+2] + N
293.15 K, 101 kPa
Details | viscosity [mPa·s]
x1 = 0.06 | 0.171
x1 = 0.13 | 0.24
x1 = 0.28 | 0.366
x1 = 0.58 | 0.81

O=CO + NC=O
viscosity [mPa·s]
Details | 298.15 K | 303.15 K | 308.15 K | 313.15 K
101 kPa, x2 = 0.1 | 1.946 | – | – | 1.429
101 kPa, x2 = 0.2005 | 2.316 | – | – | 1.685
101 kPa, x2 = 0.3015 | 2.557 | – | – | 1.849
101 kPa, x2 = 0.4 | 2.85 | – | – | 2.065
101 kPa, x2 = 0.5002 | 3.057 | – | – | 2.23
101 kPa, x2 = 0.6001 | 3.196 | – | – | 2.31
101 kPa, x2 = 0.7 | 3.286 | – | – | 2.342
101 kPa, x2 = 0.8001 | 3.314 | – | – | 2.355
101 kPa, x2 = 0.9 | 3.341 | – | – | 2.368
101.33 kPa, x2 = 0.0748 | 1.77 | 1.58 | 1.45 | 1.33
101.33 kPa, x2 = 0.1535 | 2.01 | 1.79 | 1.65 | 1.52
101.33 kPa, x2 = 0.2286 | 2.25 | 2 | 1.83 | 1.68
101.33 kPa, x2 = 0.3078 | 2.5 | 2.21 | 2.02 | 1.84
101.33 kPa, x2 = 0.3891 | 2.81 | 2.47 | 2.26 | 2.07
101.33 kPa, x2 = 0.4554 | 2.86 | 2.52 | 2.3 | 2.1
101.33 kPa, x2 = 0.5248 | 2.98 | 2.62 | 2.39 | 2.18
101.33 kPa, x2 = 0.6239 | 3.06 | 2.69 | 2.46 | 2.24
101.33 kPa, x2 = 0.6923 | 3.09 | 2.72 | 2.48 | 2.25
101.33 kPa, x2 = 0.7982 | 3.13 | 2.74 | 2.49 | 2.26
101.33 kPa, x2 = 0.8449 | 3.12 | 2.73 | 2.48 | 2.26
101.33 kPa, x2 = 0.9202 | 3.11 | 2.72 | 2.47 | 2.25
